{
  "source": "patent US10618875B2",
  "about": "(priority 2017, dated 2020)",
  "key": {"[1]": {"conditions": "mouse, in vivo"}, "NCI-60 cell lines": {"tested_on": "NCI-60 cell lines", "assay": "cells", "assay_type": "cell-based, human"}, "[2]": {"conditions": "in vivo"}, "[3]": {"tested_on": "Hep3B-luc human liver tumor", "set-up": "species or system BALB/c nude mice", "conditions": "mouse"}},
  "note": "Where a name gives a salt, the structure may show the parent alone.",
  "data": [
    {"compound": "O=[N+]([O-])c1ccc(O)c([N+](=O)[O-])c1", "note": "[DNP, 2,4-dinitrophenol]", "values": [
      {"measurement": "blood creatinine", "setting": "[1]", "value": "raised blood creatinine"},
      {"measurement": "delta of growth percent across all cell lines tested", "setting": "NCI-60 cell lines", "value": 28.44, "unit": "%"},
      {"measurement": "range of growth percent across all cell lines", "setting": "NCI-60 cell lines", "value": 44.43, "unit": "%"},
      {"measurement": "activity at 10 µM", "setting": "NCI-60 cell lines; Homo sapiens, 48 h, read-out: mean growth percent of control across the NCI-60", "value": 98.4, "unit": "%"},
      {"measurement": "inhibition at 10 µM", "setting": "NCI-60 cell lines; Homo sapiens, read-out: growth inhibition in any of the NCI-60 cell lines", "value": "< 50", "unit": "%"},
      {"measurement": "animals that died", "setting": "[2]; male, C57BL/6, mouse", "value": 50, "unit": "%"},
      {"measurement": "LD50", "setting": "[2]; mouse, po", "value": 100, "unit": "mpk"}
    ]},
    {"compound": "CNC(=O)c1cc(Oc2ccc(NC(=O)Nc3ccc(Cl)c(C(F)(F)F)c3)cc2)ccn1", "note": "[Sorafenib, Sorafenib Tosylate]", "values": [
      {"measurement": "BLI (in vivo bioluminescence) of Hep3B-luc tumor", "setting": "[3]", "value": "showed a trend toward having an effects on decreasing BLI"}
    ]}
  ]
}
